Results from PubChem BioAssay (NCI).
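Results reflect a 48-hour exposure of cells in 96-well plates to compound at five concentrations. GI50 is the concentration that inhibits growth by half. Definition used: TGI = concentration required for complete inhibition of growth.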

Assays:
Test in all cases: DTP human tumour cell line panel, 48 h; in the data active = GI50 below about 0.43 µM; inactive = the rest
NCI-H522 lung = tested on: NCI-H522 lung
BT-549 breast = tested on: BT-549 breast
HCT-15 colon = tested on: HCT-15 colon
786-0 renal = tested on: 786-0 renal
TK-10 renal = tested on: TK-10 renal
T-47D breast = tested on: T-47D breast
SF-539 CNS = tested on: SF-539 CNS
HOP-92 NSCLC = tested on: HOP-92 NSCLC
SK-MEL-5 melanoma = tested on: SK-MEL-5 melanoma
HOP-62 NSCLC = tested on: HOP-62 NSCLC
A498 renal = tested on: A498 renal
LOX IMVI melanoma = tested on: LOX IMVI melanoma
RXF 393 renal = tested on: RXF 393 renal
HS 578T breast = tested on: HS 578T breast
UACC-62 melanoma = tested on: UACC-62 melanoma
CAKI-1 renal = tested on: CAKI-1 renal
COLO 205 colon = tested on: COLO 205 colon
SNB-19 CNS = tested on: SNB-19 CNS
OVCAR-5 ovarian = tested on: OVCAR-5 ovarian
EKVX NSCLC = tested on: EKVX NSCLC
MDA-MB-435 = tested on: MDA-MB-435
A549 NSCLC = tested on: A549 NSCLC
M14 melanoma = tested on: M14 melanoma
OVCAR-3 ovarian = tested on: OVCAR-3 ovarian
MCF7 breast = tested on: MCF7 breast
ACHN renal = tested on: ACHN renal
MOLT-4 leukemia = tested on: MOLT-4 leukemia
K-562 leukemia = tested on: K-562 leukemia
NCI/ADR-RES ovarian = tested on: NCI/ADR-RES ovarian
SN12C renal = tested on: SN12C renal
UO-31 renal = tested on: UO-31 renal
MDA-MB-231 breast = tested on: MDA-MB-231 breast
RPMI-8226 leukemia = tested on: RPMI-8226 leukemia
SR leukemia = tested on: SR leukemia
IGROV1 ovarian = tested on: IGROV1 ovarian
U251 CNS = tested on: U251 CNS
DU-145 prostate = tested on: DU-145 prostate
NCI-H460 lung = tested on: NCI-H460 lung
SF-268 CNS = tested on: SF-268 CNS
KM12 colon = tested on: KM12 colon
UACC-257 melanoma = tested on: UACC-257 melanoma
NCI-H23 lung = tested on: NCI-H23 lung
SF-295 CNS = tested on: SF-295 CNS
OVCAR-8 ovarian = tested on: OVCAR-8 ovarian
MALME-3M melanoma = tested on: MALME-3M melanoma
HCT-116 colon = tested on: HCT-116 colon
NCI-H226 lung = tested on: NCI-H226 lung
SW-620 colon = tested on: SW-620 colon
SK-MEL-2 melanoma = tested on: SK-MEL-2 melanoma
HL-60(TB) leukemia = tested on: HL-60(TB) leukemia
PC-3 prostate = tested on: PC-3 prostate
CCRF-CEM leukemia = tested on: CCRF-CEM leukemia
SK-OV-3 ovarian = tested on: SK-OV-3 ovarian
OVCAR-4 ovarian = tested on: OVCAR-4 ovarian
HCC-2998 colon = tested on: HCC-2998 colon
HT29 colon = tested on: HT29 colon
SK-MEL-28 melanoma = tested on: SK-MEL-28 melanoma

CCOC(=O)C1CCCCN1C(=O)c1ccc(Nc2cnc3cc(C(F)(F)F)ccc3n2)cc1 (stereo not given)
22.1 µM: TGI (MALME-3M melanoma)
5.66 µM: TGI (MDA-MB-231 breast)
37.1 µM: TGI (SF-539 CNS)
inactive: GI50 (NCI-H522 lung) 30.4 µM | GI50 (BT-549 breast) 20.1 µM | GI50 (HCT-15 colon) 17.2 µM | GI50 (786-0 renal) 4.82 µM | GI50 (TK-10 renal) 13.3 µM | GI50 (T-47D breast) 6.91 µM | GI50 (SF-539 CNS) 15.8 µM | GI50 (SK-MEL-5 melanoma) 12.4 µM | GI50 (HOP-62 NSCLC) 17.6 µM | GI50 (A498 renal) 10.3 µM | GI50 (LOX IMVI melanoma) 3.62 µM | GI50 (RXF 393 renal) 3.23 µM | GI50 (HS 578T breast) 3.18 µM | GI50 (UACC-62 melanoma) 14.2 µM | GI50 (CAKI-1 renal) 18 µM | GI50 (COLO 205 colon) 23 µM | GI50 (SNB-19 CNS) 21.3 µM | GI50 (OVCAR-5 ovarian) 10.3 µM | GI50 (EKVX NSCLC) 36 µM | GI50 (MDA-MB-435) 14.7 µM | GI50 (A549 NSCLC) 15 µM | GI50 (M14 melanoma) 14.9 µM | GI50 (OVCAR-3 ovarian) 15.5 µM | GI50 (MCF7 breast) 10.2 µM | GI50 (ACHN renal) 15.4 µM | GI50 (MOLT-4 leukemia) 3.93 µM | GI50 (K-562 leukemia) 15.1 µM | GI50 (NCI/ADR-RES ovarian) 14.1 µM | GI50 (SN12C renal) 16.2 µM | GI50 (UO-31 renal) 14.2 µM | GI50 (MDA-MB-231 breast) 2860 nM | GI50 (RPMI-8226 leukemia) 2200 nM | GI50 (SR leukemia) 3.8 µM | GI50 (IGROV1 ovarian) 19.3 µM | GI50 (U251 CNS) 11.3 µM | GI50 (DU-145 prostate) 20.5 µM | GI50 (NCI-H460 lung) 13.3 µM | GI50 (SF-268 CNS) 13.2 µM | GI50 (KM12 colon) 13.1 µM | GI50 (UACC-257 melanoma) 15.7 µM | GI50 (NCI-H23 lung) 14.7 µM | GI50 (SF-295 CNS) 3.31 µM | GI50 (OVCAR-8 ovarian) 33.2 µM | GI50 (MALME-3M melanoma) 6.89 µM | GI50 (HCT-116 colon) 14.9 µM | GI50 (NCI-H226 lung) 24.5 µM | GI50 (SW-620 colon) 17.8 µM | GI50 (SK-MEL-2 melanoma) 23.2 µM | GI50 (HL-60(TB) leukemia) 19.1 µM | GI50 (PC-3 prostate) 11.5 µM
33.9 µM: TGI (CAKI-1 renal)
26.9 µM: TGI (PC-3 prostate)
92.2 µM: TGI (DU-145 prostate)
5.93 µM: TGI (HOP-92 NSCLC)
28.1 µM: TGI (HCT-116 colon)
29.8 µM: TGI (UACC-257 melanoma)
14.7 µM: TGI (HS 578T breast)
19.1 µM: TGI (SR leukemia)
6.42 µM: TGI (RPMI-8226 leukemia)
64.1 µM: TGI (SNB-19 CNS)
31.6 µM: TGI (OVCAR-3 ovarian)
28.6 µM: TGI (NCI-H23 lung)
32.2 µM: TGI (U251 CNS)
40.8 µM: TGI (IGROV1 ovarian)
32.7 µM: TGI (SF-268 CNS)
8.45 µM: TGI (RXF 393 renal)
33.2 µM: TGI (UO-31 renal)
67.3 µM: TGI (SK-MEL-2 melanoma)
45.6 µM: TGI (NCI-H226 lung)
23 µM: TGI (OVCAR-5 ovarian)
16.4 µM: TGI (786-0 renal) | TGI (LOX IMVI melanoma)
28 µM: TGI (TK-10 renal)
43.4 µM: TGI (ACHN renal)
27.8 µM: TGI (KM12 colon)
25.1 µM: TGI (SK-MEL-5 melanoma) | TGI (MCF7 breast)
71.8 µM: TGI (COLO 205 colon)
28.3 µM: TGI (MDA-MB-435)
42.6 µM: TGI (HCT-15 colon)
29 µM: TGI (M14 melanoma)
22.9 µM: TGI (A498 renal)
> 100 µM: TGI (NCI-H522 lung) | TGI (T-47D breast) | TGI (EKVX NSCLC) | TGI (MOLT-4 leukemia) | TGI (K-562 leukemia) | TGI (OVCAR-8 ovarian) | TGI (HL-60(TB) leukemia)
44.2 µM: TGI (A549 NSCLC)
9.24 µM: TGI (SF-295 CNS)
31.5 µM: TGI (SN12C renal)
30.4 µM: TGI (NCI-H460 lung)
32.5 µM: TGI (HOP-62 NSCLC)
38.5 µM: TGI (SW-620 colon)
29.2 µM: TGI (NCI/ADR-RES ovarian)
38.7 µM: TGI (BT-549 breast)
27.7 µM: TGI (UACC-62 melanoma)

O=C(Nc1ccc(Cl)cc1)c1cc(S(=O)(=O)Nc2nnc3c(Cl)cc(C(F)(F)F)cn23)c(S)cc1Cl
74.6 µM: TGI (SK-MEL-2 melanoma)
> 100 µM: TGI (NCI-H522 lung) | TGI (CCRF-CEM leukemia) | TGI (SK-OV-3 ovarian) | TGI (BT-549 breast) | TGI (HCT-15 colon) | TGI (786-0 renal) | TGI (TK-10 renal) | TGI (T-47D breast) | TGI (SF-539 CNS) | TGI (OVCAR-4 ovarian) | TGI (HOP-92 NSCLC) | TGI (SK-MEL-5 melanoma) | TGI (HOP-62 NSCLC) | TGI (RXF 393 renal) | TGI (HS 578T breast) | TGI (HCC-2998 colon) | TGI (CAKI-1 renal) | TGI (COLO 205 colon) | TGI (SNB-19 CNS) | TGI (OVCAR-5 ovarian) | TGI (EKVX NSCLC) | TGI (MDA-MB-435) | TGI (A549 NSCLC) | TGI (M14 melanoma) | TGI (OVCAR-3 ovarian) | TGI (MCF7 breast) | TGI (ACHN renal) | TGI (MOLT-4 leukemia) | TGI (K-562 leukemia) | TGI (NCI/ADR-RES ovarian) | TGI (SN12C renal) | TGI (UO-31 renal) | TGI (MDA-MB-231 breast) | TGI (RPMI-8226 leukemia) | TGI (SR leukemia) | TGI (IGROV1 ovarian) | TGI (U251 CNS) | TGI (DU-145 prostate) | TGI (NCI-H460 lung) | TGI (SF-268 CNS) | TGI (KM12 colon) | TGI (UACC-257 melanoma) | TGI (NCI-H23 lung) | TGI (SF-295 CNS) | TGI (HT29 colon) | TGI (OVCAR-8 ovarian) | TGI (MALME-3M melanoma) | TGI (HCT-116 colon) | TGI (SK-MEL-28 melanoma) | TGI (NCI-H226 lung) | TGI (HL-60(TB) leukemia) | TGI (PC-3 prostate)
86.3 µM: TGI (A498 renal)
